The test system of one experiment is T1, VEGFR-2/NP-1.
T1 construct: In the COS-1 cells overexpressing the full-length VEGFR-2; the NP-1 cDNA used for these experiments would only produce the full-length receptor; expressed in transfected cells; host or cells: COS-1
In kind it is binding, human. Here is the method:
(§1) When co-expressing VEGFR-2 and NP-1, 5 μg of VEGFR-2 cDNA and 2 μg of NP-1 cDNA are used. When the receptors are expressed in isolation, for VEGFR-2, 5 μg of VEGFR-2 cDNA and 2 μg of mock vector cDNA are used.
(§2) After generation of the liposome/DNA solution, the cells are rinsed one time with 5 ml Optimem I, then replaced with another 5 ml of Optimem I containing the liposome/DNA solution. The cells are incubated for two to four hours at 37° C., 5% CO2, then 5 ml of COS-1 cell growth medium is applied and the transfection is allowed to proceed overnight. The following day, cells are trypsinized (0.2% trypsin, 1 mM EDTA, Gibco-BRL), and cells containing common transfectants are pooled. […] The cells are then used for corresponding VEGFR-2/NP-1 complex formation and peptide blocking studies.
(§3) Cells are plated the day before experimentation at 200,000 cells per well in twelve well tissue culture plates (VWR) in 1 ml of growth medium specific for each cell type. On the day of experimentation, the cells were pre-equilibrated at 4° C. for 30 to 60 minutes in binding buffer (0.2% BSA, Sigma; 25 mM Hepes, Gibco; MEM, Gibco). […] The binding reaction is allowed to reach equilibrium for four hours at 4° C. with gentle agitation.
(§4) Unbound ligand is then removed by quickly washing three times with 5 ml ice cold BSA-free binding buffer (MEM, Gibco, 25 mM Hepes, Gibco). Cells are lysed by the addition of 250 μl of RIPS Buffer (previously described), and the lysed cells are transferred to 12×75 mm test tubes and counted using a gamma counter. Generation of competition curves and IC50 values are performed using the Prism software package (Graphpad Software Inc., San Diego, Calif.).

For another experiment, the target named is NP-1 (Homo sapiens, UniProt O14786). In kind it is binding. Set-up: the NP-1 cDNA used for these experiments would only produce the full-length receptor; expressed in transfected cells; host or cells: COS-1. Here is the method: as §1, §2, §3, §4
Sequence of NP-1 (O14786 22-923): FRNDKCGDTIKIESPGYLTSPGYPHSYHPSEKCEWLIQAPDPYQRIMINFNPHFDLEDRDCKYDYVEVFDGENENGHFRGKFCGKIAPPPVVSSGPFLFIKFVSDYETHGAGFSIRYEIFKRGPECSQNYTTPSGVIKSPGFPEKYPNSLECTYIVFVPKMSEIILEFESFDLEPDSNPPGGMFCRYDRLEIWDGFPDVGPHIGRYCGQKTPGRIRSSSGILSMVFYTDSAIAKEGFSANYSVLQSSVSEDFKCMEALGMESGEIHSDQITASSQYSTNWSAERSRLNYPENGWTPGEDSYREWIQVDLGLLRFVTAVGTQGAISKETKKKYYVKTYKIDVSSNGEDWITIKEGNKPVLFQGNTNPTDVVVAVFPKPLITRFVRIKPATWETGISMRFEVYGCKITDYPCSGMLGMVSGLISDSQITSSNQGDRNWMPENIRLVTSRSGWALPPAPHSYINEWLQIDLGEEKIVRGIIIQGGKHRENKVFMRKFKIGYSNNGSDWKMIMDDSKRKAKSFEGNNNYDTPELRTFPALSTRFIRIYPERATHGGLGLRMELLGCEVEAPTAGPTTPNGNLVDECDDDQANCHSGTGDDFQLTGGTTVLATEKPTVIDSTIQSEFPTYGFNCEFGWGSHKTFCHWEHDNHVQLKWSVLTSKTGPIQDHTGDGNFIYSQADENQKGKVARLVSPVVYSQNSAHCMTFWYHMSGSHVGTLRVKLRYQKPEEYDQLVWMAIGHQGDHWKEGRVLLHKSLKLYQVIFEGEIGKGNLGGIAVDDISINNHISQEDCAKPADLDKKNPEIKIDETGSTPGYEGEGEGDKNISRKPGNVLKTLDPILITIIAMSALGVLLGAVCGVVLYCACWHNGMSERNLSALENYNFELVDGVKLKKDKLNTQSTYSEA
Experiment [1] has as its system VEGF165 vascular growth response. The experiment is described as follows: Mouse corneal pocket model. In kind it is in vivo. Set-up: key to Score #1 (subjective neovascular response score) / Score #2 (subjective neovascular response score) / Score #3 (subjective neovascular response score): subjective neovascular growth score, 0 to 6 scale. Here is the method: A 0.2 μl aliquot of this solution yielded a 4 μg dose. Human recombinant VEGF165 was purchased from R&D Systems (Minneapolis, Minn.), supplied in a lyophilized, carrier free form and reconstituted in the same water as the above peptide. A 0.2 μl aliquot of this solution yielded a 300 ng dose.
Male albino mice (Crl: CD-I (ICR) BR, VAF) from Charles River (Portage, N.C.), 20–24 grams were used. […] Compound adsorbed pellets were fabricated and implanted as described below. The treated eye was imaged on the day of implantation (day 0) and on days 4 and 7 following surgery. The growth response was subjectively graded on a scale from 0 to 6 by three independent graders blinded from the treatment grouping labels using the 3× printed image.
Polyvinyl alcohol (PVA) matrix material (Rippey, El Dorado Hills, Calif.) was cut into 1 cm×3 cm pieces and placed in a vibratome for sectioning on edge to produce 300 μm thick strips. The strips were individually sterilized by exposure to ethylene oxide. A strip was then cut under a dissecting microscope into approximately 300 μm cubes. The desired concentration of test compound or vehicle was adsorbed, sometimes utilizing a micro dessicant chamber. An HP auto sampler micro-syringe (Hamilton, P/N 7000.5) controlled the exact volume of the agent adsorbed onto the sponge. The sponge was then placed on a microscope slide prepared with a coating (20 μl spread over a 0.75 mm×1.5 mm area) of 12% hydron (Sigma, St. Louis, Mo.). The slide was protected in a clean petri dish and placed into a dessicator at 4° C. for a few hours or overnight. The dry, adsorbed sponges were mechanically flattened and overlaid with another aliquot of 12% hydron and again placed into a dessicator to cure the hydron coating. Fabrication of the adsorbed PVA sponge-hydron sandwich (referred to as a pellet) was done no more than 48 hours prior to implantation and the pellets were stored at 4° C. On the day of surgery and just prior to implantation, the pellet was trimmed so that the sponge remained encased by hydron (approximately 400 μm×400 μm×50 μm) and could be carefully removed from the slide.
Mice were anesthetized with 0.05 cc of Ketamine (140 mg/kg) and 0.03 cc Xylazine (17 mg/kg). A surgical plane of anesthesia was maintained by subsequent administration of half doses of the above compounds as needed. The whiskers on the animal's right side were trimmed down to ¼ of an inch. The right eye was bathed in an ophthalmic local anesthetic solution (Ophthaine, 0.5% tetracine hydrochloride) initially and throughout the procedure. The animal was placed on its side and the skin around the eye was gently retracted to expose the lateral and apical aspects of the cornea. The lateral limbic artery bifurcation was positioned horizontally. While stabilizing the eye against the ocular orbit, a vertical incision was made using a micro scalpel into the corneal tissue just lateral to the pupil. Care was taken to prevent accidental perforation of the anterior eye chamber. The incision depth was carefully deepened until a delicate and small lateral stab could be made (on axis with the lateral limbic artery bifurcation) with the micro scalpel into the middle of the corneal stroma. This lateral, intrastromal incision was enlarged by blunt dissection with very fine forceps until a pocket was formed from the vertical incision toward the limbus.
A hydron coated PVA sponge with adsorbed test compound (pellet) was prepared for implantation by carefully excising and removing it from the microscope slide. The pellet was introduced gently into the corneal pocket and advanced to within 1–2 mm of the limbus. The edges of the vertical corneal incision were approximated to encourage rapid healing. The imaging procedure (described below) was used to document the native limbic vascular architecture at the time of implantation. Post surgical recovery of the animal consisted of triple antibiotic ophthalmic ointment to prevent corneal drying, abrasion and infection. […]

Ends that are not written are not given here. Peptide text beside a SMILES is read from it.

On to “H-KGRGKARREKQRPSDKPRR-OH [Peptide P6V8-3NCSA6]”, for which the “Relative Affinity to Lead Peptide (RALP), VEGFR-2/NP-1” value in the experiment on VEGFR-2/NP-1 is listed as 5.10. The “Relative Affinity to Lead Peptide (RALP), NP-1” value on NP-1 was determined as 2.16. In the case of “H-AGRGKRRREKQRPSDKPRR-OH [Peptide P6V8-3NCSA1]”, the “Relative Affinity to Lead Peptide (RALP), NP-1” value at NP-1 is recorded as 0.99.

With `C[C@@H]1NC(=O)CNC(=O)[C@H](CCCNC(=N)N)NC(=O)CNC(=O)[C@H](CCCCN)NC(=O)[C@@H](N)CSSC[C@@H](C(=O)N[C@@H](CCCNC(=N)N)C(=O)N[C@@H](CCC(=O)O)C(=O)N[C@@H](CCCCN)C(=O)N[C@@H](CCC(N)=O)C(=O)N[C@@H](CCCNC(=N)N)C(=O)N2CCC[C@H]2C(=O)N[C@@H](CO)C(=O)N[C@@H](CC(=O)O)C(=O)N[C@@H](CCCCN)C(=O)N2CCC[C@H]2C(=O)N[C@@H](CCCNC(=N)N)C(=O)N[C@@H](CCCNC(=N)N)C(=O)O)NC(=O)[C@H](CCCNC(=N)N)NC1=O` [P6V8-3NCS1-7CCA5] (HELM PEPTIDE1{C.K.G.R.G.A.R.C.R.E.K.Q.R.P.S.D.K.P.R.R}$PEPTIDE1,PEPTIDE1,1:R3-8:R3$$$V2.0), in the experiment with VEGFR-2/NP-1, the “Relative Affinity to Lead (RALP), VEGFR-2/NP-1” value worked out at 1.87. The “Relative Affinity to Lead (RALP), NP-1” value at NP-1 is 1.64. As to “H-KGRGKRAAEAQRPSDKPRR-OH [P6V8-3NCSA7,8, 10]”, the “Relative Affinity to Lead Peptide (RALP), VEGFR-2/NP-1” value in the experiment on VEGFR-2/NP-1 is listed as 3.27. Further, the “Relative Affinity to Lead Peptide (RALP), NP-1” value on NP-1 amounted to 14.25. “H-AGRGARAAEAQRPSDKPRR-OH [P6V8-3NCSA1,5,7,8, 10]”: the “Relative Affinity to Lead Peptide (RALP), VEGFR-2/NP-1” value in the experiment on VEGFR-2/NP-1 stood at 5.22. Also, on NP-1, the “Relative Affinity to Lead Peptide (RALP), NP-1” value was determined as 67.76. For the compound `C[C@@H]1NC(=O)[C@@H](N)CSSC[C@@H](C(=O)N[C@@H](CCCNC(=N)N)C(=O)N[C@@H](CCC(=O)O)C(=O)N[C@@H](CCCCN)C(=O)N[C@@H](CCC(N)=O)C(=O)N[C@@H](CCCNC(=N)N)C(=O)N2CCC[C@H]2C(=O)N[C@@H](CO)C(=O)N[C@@H](CC(=O)O)C(=O)N[C@@H](CCCCN)C(=O)N2CCC[C@H]2C(=O)N[C@@H](CCCNC(=N)N)C(=O)N[C@@H](CCCNC(=N)N)C(=O)O)NC(=O)[C@H](CCCNC(=N)N)NC(=O)[C@H](CCCCN)NC(=O)CNC(=O)[C@H](CCCNC(=N)N)NC(=O)CNC1=O` [P6V8-3NCS1-7CCA1] (HELM PEPTIDE1{C.A.G.R.G.K.R.C.R.E.K.Q.R.P.S.D.K.P.R.R}$PEPTIDE1,PEPTIDE1,1:R3-8:R3$$$V2.0), the “Relative Affinity to Lead (RALP), VEGFR-2/NP-1” value in the experiment with VEGFR-2/NP-1 came to 1.97. Also, the “Relative Affinity to Lead (RALP), NP-1” value on NP-1 is given as 14.35. With “RRPKGRGKRRREKQRPCDKPRR [Peptide P6V8, RRP KGR GKR RRE KQR P CDKPRR]”, in experiment [1] (Day 7, P6V8 alone 4 μg, 0 = no change in limbic vasculature from Day 0), the “score of eye images by all graders” value came out at 0. In addition, in experiment [1] (P6V8 4 μg, mouse corneal micro pocket), the “vascular growth response to 300 ng of VEGF165 in the presence of peptide” value is reported as “attenuated”. The “Score #1 (subjective neovascular response score)” value in experiment [1] (grader 1, per animal, scale 0 to 6, pellet P6V8 4 μg and/or VEGF165 300 ng) was determined as 0. For the same compound, the “Score #2 (subjective neovascular response score)” value in experiment [1] (grader 2, per animal, scale 0 to 6, pellet P6V8 4 μg and/or VEGF165 300 ng) is reported as 0. Further, in experiment [1] (grader 3, per animal, scale 0 to 6, pellet P6V8 4 μg and/or VEGF165 300 ng), the “Score #3 (subjective neovascular response score)” value was 0. With “H-KGRGKRAAEAQAPSDAPAR-OH [P6V8-3NCSA7,8, 10, 12, 16, 18]”, the “Relative Affinity to Lead Peptide (RALP), VEGFR-2/NP-1” value in the experiment on VEGFR-2/NP-1 came to 27.540. For the same compound, on NP-1, the “Relative Affinity to Lead Peptide (RALP), NP-1” value stood at 72.44. In the same order, the values of H-RRPKGRGKRRREKQRPSDAAAR-OH [AS-5] are 0.71 and 1.6. Consider `C[C@@H]1NC(=O)CNC(=O)[C@H](CCCNC(=N)N)NC(=O)CNC(=O)[C@H](C)NC(=O)[C@@H](N)CSSC[C@@H](C(=O)N[C@@H](CCCNC(=N)N)C(=O)N[C@@H](CCC(=O)O)C(=O)N[C@@H](CCCCN)C(=O)N[C@@H](CCC(N)=O)C(=O)N[C@@H](CCCNC(=N)N)C(=O)N2CCC[C@H]2C(=O)N[C@@H](CO)C(=O)N[C@@H](CC(=O)O)C(=O)N[C@@H](CCCCN)C(=O)N2CCC[C@H]2C(=O)N[C@@H](CCCNC(=N)N)C(=O)N[C@@H](CCCNC(=N)N)C(=O)O)NC(=O)[C@H](CCCNC(=N)N)NC1=O` [P6V8-3NCS1-7CCA1A5] (HELM PEPTIDE1{C.A.G.R.G.A.R.C.R.E.K.Q.R.P.S.D.K.P.R.R}$PEPTIDE1,PEPTIDE1,1:R3-8:R3$$$V2.0), for which the “Relative Affinity to Lead (RALP), VEGFR-2/NP-1” value with VEGFR-2/NP-1 was determined as 17.33. In addition, the “Relative Affinity to Lead (RALP), NP-1” value at NP-1 is given as 30.76.

Turning to “H-RRPAAAGKRRREKQRPSDKPRR-OH [AS-1, RRP AAA GKR RRE KQR PSD KPR R]”, the “Relative Affinity to Lead Peptide (RALP), VEGFR-2/NP-1” value with VEGFR-2/NP-1 came out at 1. Also, the “Relative Affinity to Lead Peptide (RALP), NP-1” value on NP-1 stood at 8.

In the case of “H-KGRGARRREKQRPSDKPRR-OH [Peptide P6V8-3NCSA5]”, the “Relative Affinity to Lead Peptide (RALP), VEGFR-2/NP-1” value in the experiment with VEGFR-2/NP-1 is reported as 1.45. For the compound “H-KGAGKRRREKQRPSDKPRR-OH [Peptide P6V8-3NCSA3]”, the “Relative Affinity to Lead Peptide (RALP), VEGFR-2/NP-1” value in the experiment with VEGFR-2/NP-1 was determined as 0.23. Besides, the “Relative Affinity to Lead Peptide (RALP), NP-1” value on NP-1 was found to be 8.8. For the compound “H-KGRGKRAAEKQAPSDKPRR-OH [P6V8-3NCSA7,8, 12]”, at NP-1, the “Relative Affinity to Lead Peptide (RALP), NP-1” value is on record as 1.91.

With “H-AGRGARRREKQRPSDKPRR-OH [P6V8-3NCSA1A5]”, the “Relative Affinity to Lead Peptide (RALP), VEGFR-2/NP-1” value in the experiment with VEGFR-2/NP-1 amounted to 0.71. Consider “H-AGRGKARREKQRPSDKPRR-OH [P6V8-3NCSA1A6]”, for which, in the experiment on VEGFR-2/NP-1, the “Relative Affinity to Lead Peptide (RALP), VEGFR-2/NP-1” value amounted to 0.93. In addition, the “Relative Affinity to Lead Peptide (RALP), NP-1” value at NP-1 came out at 2.30. As to “H-KGAGKARREKQRPSDKPRR-OH [P6V8-3NCSA3A6]”, in the experiment on VEGFR-2/NP-1, the “Relative Affinity to Lead Peptide (RALP), VEGFR-2/NP-1” value is 8.20. For the same compound, the “Relative Affinity to Lead Peptide (RALP), NP-1” value on NP-1 is listed as 48.8.

The values are drawn from patent publication US7052705B2, “Anti-angiogenic peptides” (Regeneron Pharmaceuticals, Inc., priority 2001, dated 2006).
